Measured values: PubChem BioAssay AID1963827 (Molecular Pharmacology Branch, DTP, NCI, 2024)

System: 994946-033-R-J1-PDC complex spheroid viability
Assay: Anticancer human tumor 994946-033-R-J1-PDC patient-derived melanoma cell line growth inhibition [POLQ]
Details: for IC50: curve of first compound; for viability, T/C: stronger effect = lower value
In short: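 PDC + HUVEC + MSC complex spheroids; POLQ inhibitors ± partner drugs; top conc. at/near clinical Cmax, else 10 microM (SN-38 1 microM), half-log dilutions; 37 degrees C, 5% CO2.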

[1] = second compound 0.0316 µM, first compound 0.0316 µM
[2] = second compound 0.0316 µM, first compound 0.1 µM
[3] = second compound 0.0316 µM, first compound 0.316 µM
[4] = second compound 0.0316 µM, first compound 1 µM
[5] = second compound 0.0316 µM, first compound 3.16 µM
[6] = second compound 0.0316 µM, first compound 10 µM
[7] = second compound 0.1 µM, first compound 0.0316 µM
[8] = second compound 0.1 µM, first compound 0.1 µM
[9] = second compound 0.1 µM, first compound 0.316 µM
[10] = second compound 0.1 µM, first compound 1 µM
[11] = second compound 0.1 µM, first compound 3.16 µM
[12] = second compound 0.1 µM, first compound 10 µM
[13] = second compound 0.316 µM, first compound 0.0316 µM
[14] = second compound 0.316 µM, first compound 0.1 µM
[15] = second compound 0.316 µM, first compound 0.316 µM
[16] = second compound 0.316 µM, first compound 1 µM
[17] = second compound 0.316 µM, first compound 3.16 µM
[18] = second compound 0.316 µM, first compound 10 µM
[19] = second compound 1 µM, first compound 0.0316 µM
[20] = second compound 1 µM, first compound 0.1 µM
[21] = second compound 1 µM, first compound 0.316 µM
[22] = second compound 1 µM, first compound 1 µM
[23] = second compound 1 µM, first compound 3.16 µM
[24] = second compound 1 µM, first compound 10 µM
[25] = second compound 3.16 µM, first compound 0.0316 µM
[26] = second compound 3.16 µM, first compound 0.1 µM
[27] = second compound 3.16 µM, first compound 0.316 µM
[28] = second compound 3.16 µM, first compound 1 µM
[29] = second compound 3.16 µM, first compound 3.16 µM
[30] = second compound 3.16 µM, first compound 10 µM
[31] = second compound 10 µM, first compound 0.0316 µM
[32] = second compound 10 µM, first compound 0.1 µM
[33] = second compound 10 µM, first compound 0.316 µM
[34] = second compound 10 µM, first compound 1 µM
[35] = second compound 10 µM, first compound 3.16 µM
[36] = second compound 10 µM, first compound 10 µM
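Further: spheroids exposed to drugs for 7 days.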
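Wherever viability, T/C is given: 100% = DMSO vehicle treated spheroids.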

Compound: COc1cccc2c1C(=O)c1c(O)c3c(c(O)c1C2=O)CC(O)(C(=O)CO)CC3OC1CC(N)C(O)C(C)O1 (stereo unspecified) + COC1C(OC(N)=O)C(O)C(Oc2ccc3c(O)c(NC(=O)c4ccc(O)c(CC=C(C)C)c4)c(=O)oc3c2C)OC1(C)C
- IC50 (second compound 0.0316 µM): < 0.0316 µM
- IC50 (second compound 0.1 µM): < 0.0316 µM
- IC50 (second compound 0.316 µM): < 0.0316 µM
- IC50 (second compound 1 µM): < 0.0316 µM
- IC50 (second compound 3.16 µM): < 0.0316 µM
- IC50 (second compound 10 µM): < 0.0316 µM
- viability, T/C [1]: 30%
- viability, T/C [2]: 9.63%
- viability, T/C [3]: 3%
- viability, T/C [4]: 2.19%
- viability, T/C [5]: 0.88%
- viability, T/C [6]: 1.18%
- viability, T/C [7]: 38.2%
- viability, T/C [8]: 11.2%
- viability, T/C [9]: 1.88%
- viability, T/C [10]: 1.88%
- viability, T/C [11]: 1.36%
- viability, T/C [12]: 0.62%
- viability, T/C [13]: 29.7%
- viability, T/C [14]: 8.65%
- viability, T/C [15]: 5.33%
- viability, T/C [16]: 1.37%
- viability, T/C [17]: 0.61%
- viability, T/C [18]: 1.78%
- viability, T/C [19]: 38.5%
- viability, T/C [20]: 21.4%
- viability, T/C [21]: 2.96%
- viability, T/C [22]: 0.39%
- viability, T/C [23]: 0.88%
- viability, T/C [24]: 0.7%
- viability, T/C [25]: 29.7%
- viability, T/C [26]: 7.94%
- viability, T/C [27]: 3.1%
- viability, T/C [28]: 0.41%
- viability, T/C [29]: 0.77%
- viability, T/C [30]: 0.92%
- viability, T/C [31]: 29.2%
- viability, T/C [32]: 9.79%
- viability, T/C [33]: 2.2%
- viability, T/C [34]: 0.59%
- viability, T/C [35]: 1.28%
- viability, T/C [36]: 0.88%

Compound: O=C(c1cc(Cc2n[nH]c(=O)c3ccccc23)ccc1F)N1CCN(C(=O)C2CC2)CC1 + Cc1cccc(N(C)C(=O)C2C(O)CCN2c2nc(C)cc(C(F)(F)F)c2C#N)c1
- IC50 (second compound 0.0316 µM): 6.12 µM
- IC50 (second compound 0.1 µM): 4.16 µM
- IC50 (second compound 0.316 µM): 8.94 µM
- IC50 (second compound 1 µM): 6.77 µM
- IC50 (second compound 3.16 µM): 4.89 µM
- IC50 (second compound 10 µM): > 10 µM
- viability, T/C [1]: 103%
- viability, T/C [2]: 92.8%
- viability, T/C [3]: 82.3%
- viability, T/C [4]: 94.2%
- viability, T/C [5]: 80.2%
- viability, T/C [6]: 27.3%
- viability, T/C [7]: 100%
- viability, T/C [8]: 105%
- viability, T/C [9]: 89.9%
- viability, T/C [10]: 69.6%
- viability, T/C [11]: 57.9%
- viability, T/C [12]: 35.9%
- viability, T/C [13]: 106%
- viability, T/C [14]: 95.3%
- viability, T/C [15]: 82.5%
- viability, T/C [16]: 86.8%
- viability, T/C [17]: 92%
- viability, T/C [18]: 45.5%
- viability, T/C [19]: 79.7%
- viability, T/C [20]: 102%
- viability, T/C [21]: 81.7%
- viability, T/C [22]: 84.3%
- viability, T/C [23]: 75.6%
- viability, T/C [24]: 37%
- viability, T/C [25]: 105%
- viability, T/C [26]: 97.6%
- viability, T/C [27]: 79.5%
- viability, T/C [28]: 88.3%
- viability, T/C [29]: 56.8%
- viability, T/C [30]: 33.3%
- viability, T/C [31]: 110%
- viability, T/C [32]: 93.4%
- viability, T/C [33]: 83.3%
- viability, T/C [34]: 78%
- viability, T/C [35]: 77.5%
- viability, T/C [36]: 56.1%

Compound: Cn1ncnc1[C@H]1c2n[nH]c(=O)c3cc(F)cc(c23)N[C@@H]1c1ccc(F)cc1 + Cc1cccc(N(C)C(=O)C2C(O)CCN2c2nc(C)cc(C(F)(F)F)c2C#N)c1
- IC50 (second compound 0.0316 µM): > 0.1 µM
- IC50 (second compound 0.1 µM): > 0.1 µM
- IC50 (second compound 0.316 µM): > 0.1 µM
- IC50 (second compound 1 µM): > 0.1 µM
- IC50 (second compound 3.16 µM): > 0.1 µM
- IC50 (second compound 10 µM): > 0.1 µM
- viability, T/C (second compound 0.0316 µM, first compound 0.000316 µM): 105%
- viability, T/C (second compound 0.0316 µM, first compound 0.001 µM): 85.7%
- viability, T/C (second compound 0.0316 µM, first compound 0.00316 µM): 86.8%
- viability, T/C (second compound 0.0316 µM, first compound 0.01 µM): 77.2%
- viability, T/C [1]: 87.7%
- viability, T/C [2]: 75.1%
- viability, T/C (second compound 0.1 µM, first compound 0.000316 µM): 81.5%
- viability, T/C (second compound 0.1 µM, first compound 0.001 µM): 107%
- viability, T/C (second compound 0.1 µM, first compound 0.00316 µM): 78.3%
- viability, T/C (second compound 0.1 µM, first compound 0.01 µM): 87.8%
- viability, T/C [7]: 88.3%
- viability, T/C [8]: 64.2%
- viability, T/C (second compound 0.316 µM, first compound 0.000316 µM): 115%
- viability, T/C (second compound 0.316 µM, first compound 0.001 µM): 118%
- viability, T/C (second compound 0.316 µM, first compound 0.00316 µM): 77.8%
- viability, T/C (second compound 0.316 µM, first compound 0.01 µM): 99.2%
- viability, T/C [13]: 74.8%
- viability, T/C [14]: 56%
- viability, T/C (second compound 1 µM, first compound 0.000316 µM): 134%
- viability, T/C (second compound 1 µM, first compound 0.001 µM): 91%
- viability, T/C (second compound 1 µM, first compound 0.00316 µM): 95.9%
- viability, T/C (second compound 1 µM, first compound 0.01 µM): 80.2%
- viability, T/C [19]: 76.9%
- viability, T/C [20]: 66.9%
- viability, T/C (second compound 3.16 µM, first compound 0.000316 µM): 111%
- viability, T/C (second compound 3.16 µM, first compound 0.001 µM): 111%
- viability, T/C (second compound 3.16 µM, first compound 0.00316 µM): 98%
- viability, T/C (second compound 3.16 µM, first compound 0.01 µM): 76%
- viability, T/C [25]: 87.3%
- viability, T/C [26]: 78.7%
- viability, T/C (second compound 10 µM, first compound 0.000316 µM): 109%
- viability, T/C (second compound 10 µM, first compound 0.001 µM): 65%
- viability, T/C (second compound 10 µM, first compound 0.00316 µM): 95.7%
- viability, T/C (second compound 10 µM, first compound 0.01 µM): 106%
- viability, T/C [31]: 74.8%
- viability, T/C [32]: 69.3%
